Results on eight compounds are retold here after PMC12676778, “Long-tailed class I myosins rely on tail-mediated phosphoinositide recognition for specific membrane recruitment” (Cell Communication and Signaling : CCS, 2025).

One assay relates to Dictyostelium cells. The experiment in a line: Myosin-1 localization in LY294002-treated (PI(3,4,5)P3-depleted) cells during endocytosis, confocal imaging. The following applies: 20 µM, starving cells. It is filed as cell-based, Dictyostelium discoideum. As for the experimental part:
Microtubule depolymerization rates were quantified by measuring individual microtubule length reduction over time using Andor Solis software. Cellular localization of fluorescently tagged myosins and time-lapse imaging were performed on an inverted Leica TCS SP2 AOBS confocal microscope and a Leica DMi8 M system equipped with a 63×/1.4 NA oil immersion objective. Bright-field fluorescence microscopy employed an Olympus IX81 inverted microscope with a 60×/1.49 NA oil immersion lens (ApoN, Olympus). For imaging, cells were seeded on glass-bottom dishes (Ibidi), washed twice with MES buffer (20 mM MES, pH 6.8, 0.2 mM CaCl₂, 2 mM MgCl₂), and maintained in this buffer during acquisition. Phagocytic uptake assays were performed following a 2-hour starvation, after which heat-killed yeast particles were added and time-lapse images recorded. […] Image processing was performed using Leica Confocal Software, and quantitative analysis was conducted with ImageJ (NIH, Bethesda, MD, USA). Fluorescence intensity profiles were obtained by drawing lines along the regions of the cups, as illustrated in Fig. 5. Fluorescence data were normalized to the maximum intensity and interpolated using the interpolation algorithm in Origin to account for variations in cup length. Frames showing association of myosin-1C or myosin-1D with the cups were quantified. […]

The target of the next assay is T1, Myosin-1C-tail (Dictyostelium discoideum, UniProt P42522).
T1 construct: gene myoC; GST and/or YFP tags kept; E. coli Rosetta pLysS
T1 sequence (P42522 699-1182 limits assumed): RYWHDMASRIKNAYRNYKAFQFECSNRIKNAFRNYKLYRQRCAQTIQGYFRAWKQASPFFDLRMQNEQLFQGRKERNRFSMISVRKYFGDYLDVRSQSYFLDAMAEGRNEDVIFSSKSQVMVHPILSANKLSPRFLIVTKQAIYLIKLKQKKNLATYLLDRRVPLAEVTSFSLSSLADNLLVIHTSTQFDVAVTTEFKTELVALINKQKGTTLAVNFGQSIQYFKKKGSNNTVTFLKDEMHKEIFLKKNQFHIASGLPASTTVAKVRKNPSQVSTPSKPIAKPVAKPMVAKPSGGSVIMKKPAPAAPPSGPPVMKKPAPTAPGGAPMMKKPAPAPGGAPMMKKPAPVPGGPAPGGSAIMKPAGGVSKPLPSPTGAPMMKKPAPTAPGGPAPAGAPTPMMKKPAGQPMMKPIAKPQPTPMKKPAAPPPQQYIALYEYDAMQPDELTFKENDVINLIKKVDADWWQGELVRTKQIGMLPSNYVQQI
Put plainly: liposome co-sedimentation, YFP fluorescence of supernatant. The following applies: PolyPIPosomes (5% PIP, 95% PE + PC), accessible lipid; 10 mM Tris pH 7.5, 100 mM NaCl, 1 mM EGTA, room temperature. The format is binding. From the text:
liposome co-sedimentation, YFP fluorescence of supernatant on Myosin-1C-tail

The target in another assay is T2, Myosin-1D-tail (Dictyostelium discoideum, UniProt P34109).
T2 construct: gene myoD; tail fragment (TH1, SH3, TH2), residues 717-1113; N-terminal GST and/or C-terminal YFP tags kept; E. coli Rosetta pLysS
T2 sequence (P34109 717-1109): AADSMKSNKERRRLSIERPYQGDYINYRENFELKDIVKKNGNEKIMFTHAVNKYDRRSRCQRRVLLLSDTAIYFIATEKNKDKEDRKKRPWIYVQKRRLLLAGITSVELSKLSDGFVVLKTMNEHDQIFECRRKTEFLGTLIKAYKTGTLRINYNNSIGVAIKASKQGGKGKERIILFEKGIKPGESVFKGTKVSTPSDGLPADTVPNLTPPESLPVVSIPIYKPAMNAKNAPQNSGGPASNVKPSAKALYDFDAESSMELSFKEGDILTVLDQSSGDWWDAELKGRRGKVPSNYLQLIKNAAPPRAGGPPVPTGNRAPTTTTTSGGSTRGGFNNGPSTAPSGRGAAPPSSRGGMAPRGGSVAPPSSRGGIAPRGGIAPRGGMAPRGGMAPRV
The description is as above. The format is binding. The following applies: PolyPIPosomes (5% PIP, 95% PE + PC), accessible lipid; 10 mM Tris pH 7.5, 100 mM NaCl, 1 mM EGTA, room temperature. An excerpt:
liposome co-sedimentation, YFP fluorescence of supernatant on Myosin-1D-tail

Another assay deals with T3, Myosin-1B-tail (Dictyostelium discoideum, UniProt P34092).
T3 construct: gene myoB; tail fragment (TH1, TH2, SH3), residues 717-1111; N-terminal GST and/or C-terminal YFP tags kept; E. coli Rosetta pLysS
T3 sequence (P34092 717-1111): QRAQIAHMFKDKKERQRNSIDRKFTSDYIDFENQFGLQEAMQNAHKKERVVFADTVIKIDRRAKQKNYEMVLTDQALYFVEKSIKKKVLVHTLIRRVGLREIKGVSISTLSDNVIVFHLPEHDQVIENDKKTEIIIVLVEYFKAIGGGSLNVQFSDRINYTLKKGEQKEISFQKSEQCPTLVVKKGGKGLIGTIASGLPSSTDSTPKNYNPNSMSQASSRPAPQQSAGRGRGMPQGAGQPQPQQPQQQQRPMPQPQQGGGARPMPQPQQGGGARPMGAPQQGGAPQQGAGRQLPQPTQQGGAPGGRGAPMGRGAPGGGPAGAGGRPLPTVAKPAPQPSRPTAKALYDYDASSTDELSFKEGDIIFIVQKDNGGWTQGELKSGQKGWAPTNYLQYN
The description is as above. It is filed as binding. The following applies: PolyPIPosomes (5% PIP, 95% PE + PC), accessible lipid; 10 mM Tris pH 7.5, 100 mM NaCl, 1 mM EGTA, room temperature. From the text:
liposome co-sedimentation, YFP fluorescence of supernatant on Myosin-1B-tail

As for `O=c1cc(N2CCOCC2)oc2c(-c3ccccc3)cccc12` [LY294002], in the assay on Dictyostelium cells, the “cortical actin dynamics and association of actin with the early endosome” value was “did not disrupt”; the “localization of myosin-1C and myosin-1D with endocytic cups and endosomal membranes” value was “almost fully abolished”.
A word on the Kd: it is the free concentration of one partner at which half of the binding sites on the other are occupied at equilibrium, for simple one-to-one binding. For the compound PI(3)P, the results for the Kd at Myosin-1C-tail and on Myosin-1D-tail were 4000 ± 300 nM and 1700 ± 300 nM, respectively.
As to PI(3,4)P2, the Kd at Myosin-1B-tail amounted to 2200 ± 400 nM.
Turning to PI(3,4,5)P3, the Kd on Myosin-1C-tail was 2500 ± 300 nM; on Myosin-1D-tail it was 300 ± 40 nM.
For PI(3,5)P2 the same measures were 600 ± 100 nM and 800 ± 100 nM.
On to PI(4)P, for which the Kd on Myosin-1C-tail was 400 ± 100 nM; on Myosin-1D-tail, 1200 ± 200 nM.
Consider PI(4,5)P2, for which the Kd at Myosin-1D-tail came out at 700 ± 100 nM.
Regarding PI(5)P, the Kd on Myosin-1B-tail was 7700 ± 600 nM; on Myosin-1C-tail, 500 ± 100 nM.
